In the kinase profiling compilation of Christmann-Franck et al. (2016):

Assays:
Assay in all cases: radiometric filter-binding kinase assay, Kinase HotSpot
Details in all cases: compound 0.5 µM; ATP 10 µM
ABL1 (human) = ABL1 (human) (UniProt P00519)
ACVRL1 (human) = ACVRL1 (human) (UniProt P37023)
BRSK2 (human) = BRSK2 (human) (UniProt Q8IWQ3)
BTK (human) = BTK (human) (UniProt Q06187)
CAMK2G (human) = CAMK2G (human) (UniProt Q13555)
CAMK4 (human) = CAMK4 (human) (UniProt Q16566)
CDK7 CCNH MNAT1 (human) = CDK7 CCNH MNAT1 (human) (UniProt P50613+P51948+P51946)
CDK9 CCNK (human) = CDK9 CCNK (human) (UniProt O75909+P50750)
CLK1 (human) = CLK1 (human) (UniProt P49759)
CLK3 (human) = CLK3 (human) (UniProt P49761)
CSNK1A1 (human) = CSNK1A1 (human) (UniProt P48729)
CSNK1E (human) = CSNK1E (human) (UniProt P49674)
CSNK2A1 (human) = CSNK2A1 (human) (UniProt P68400)
DYRK2 (human) = DYRK2 (human) (UniProt Q92630)
DYRK3 (human) = DYRK3 (human) (UniProt O43781)
DYRK4 (human) = DYRK4 (human) (UniProt Q9NR20)
EPHA4 (human) = EPHA4 (human) (UniProt P54764)
ERBB2 (human) = ERBB2 (human) (UniProt P04626)
FGFR3 (human) = FGFR3 (human) (UniProt P22607)
GRK4 (human) = GRK4 (human) (UniProt P32298)
GSK3B (human) = GSK3B (human) (UniProt P49841)
HIPK2 (human) = HIPK2 (human) (UniProt Q9H2X6)
MAP3K10 (human) = MAP3K10 (human) (UniProt Q02779)
MAP3K11 (human) = MAP3K11 (human) (UniProt Q16584)
MAP3K3 (human) = MAP3K3 (human) (UniProt Q99759)
MAPK1 (human) = MAPK1 (human) (UniProt P28482)
MINK1 (human) = MINK1 (human) (UniProt Q8N4C8)
NEK3 (human) = NEK3 (human) (UniProt P51956)
NEK7 (human) = NEK7 (human) (UniProt Q8TDX7)
PNCK (human) = PNCK (human) (UniProt Q6P2M8)
PRKACA (human) = PRKACA (human) (UniProt P17612)
RIPK2 (human) = RIPK2 (human) (UniProt O43353)
ROCK1 (human) = ROCK1 (human) (UniProt Q13464)
RPS6KA6 KD1 KD2 (human) = RPS6KA6 KD1 KD2 (human) (UniProt Q9UK32)
RPS6KB2 (human) = RPS6KB2 (human) (UniProt Q9UBS0)
SGK2 (human) = SGK2 (human) (UniProt Q9HBY8)
SRPK2 (human) = SRPK2 (human) (UniProt P78362)
SRPK3 (human) = SRPK3 (human) (UniProt Q9UPE1)
STK10 (human) = STK10 (human) (UniProt O94804)
TEK (human) = TEK (human) (UniProt Q02763)
TNK2 (human) = TNK2 (human) (UniProt Q07912)
ULK1 (human) = ULK1 (human) (UniProt O75385)

Sequence of DYRK4 (human) (Q9NR20 whole entry, looked up): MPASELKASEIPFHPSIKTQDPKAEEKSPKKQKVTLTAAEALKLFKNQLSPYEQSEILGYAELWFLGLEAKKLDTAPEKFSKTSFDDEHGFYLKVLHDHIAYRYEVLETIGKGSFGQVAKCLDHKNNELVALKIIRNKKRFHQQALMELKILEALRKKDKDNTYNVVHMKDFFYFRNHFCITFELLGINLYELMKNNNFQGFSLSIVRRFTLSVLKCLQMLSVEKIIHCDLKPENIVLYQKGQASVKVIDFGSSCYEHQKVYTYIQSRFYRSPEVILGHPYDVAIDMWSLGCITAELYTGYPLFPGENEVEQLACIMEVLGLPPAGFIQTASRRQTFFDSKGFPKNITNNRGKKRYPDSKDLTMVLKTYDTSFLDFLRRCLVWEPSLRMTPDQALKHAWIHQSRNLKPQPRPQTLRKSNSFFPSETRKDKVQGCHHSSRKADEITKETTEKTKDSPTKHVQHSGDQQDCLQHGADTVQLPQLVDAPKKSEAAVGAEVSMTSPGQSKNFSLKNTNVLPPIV
Sequence of RIPK2 (human) (O43353 whole entry, looked up): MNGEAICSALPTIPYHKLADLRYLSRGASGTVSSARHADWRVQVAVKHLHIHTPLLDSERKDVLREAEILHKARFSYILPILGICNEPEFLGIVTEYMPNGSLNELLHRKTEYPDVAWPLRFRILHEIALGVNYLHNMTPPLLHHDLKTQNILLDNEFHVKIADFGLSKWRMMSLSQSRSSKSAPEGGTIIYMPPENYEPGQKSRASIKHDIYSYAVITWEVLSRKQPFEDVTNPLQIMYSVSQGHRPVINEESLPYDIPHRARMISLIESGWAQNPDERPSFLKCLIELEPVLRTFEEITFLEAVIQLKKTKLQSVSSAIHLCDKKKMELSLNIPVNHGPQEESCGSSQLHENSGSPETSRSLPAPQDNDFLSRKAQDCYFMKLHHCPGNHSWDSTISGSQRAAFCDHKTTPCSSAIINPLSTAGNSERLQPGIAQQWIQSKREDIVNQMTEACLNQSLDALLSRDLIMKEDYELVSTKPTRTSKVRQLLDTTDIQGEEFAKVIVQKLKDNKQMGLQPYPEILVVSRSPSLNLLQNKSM
Sequence of CAMK2G (human) (Q13555 whole entry, looked up): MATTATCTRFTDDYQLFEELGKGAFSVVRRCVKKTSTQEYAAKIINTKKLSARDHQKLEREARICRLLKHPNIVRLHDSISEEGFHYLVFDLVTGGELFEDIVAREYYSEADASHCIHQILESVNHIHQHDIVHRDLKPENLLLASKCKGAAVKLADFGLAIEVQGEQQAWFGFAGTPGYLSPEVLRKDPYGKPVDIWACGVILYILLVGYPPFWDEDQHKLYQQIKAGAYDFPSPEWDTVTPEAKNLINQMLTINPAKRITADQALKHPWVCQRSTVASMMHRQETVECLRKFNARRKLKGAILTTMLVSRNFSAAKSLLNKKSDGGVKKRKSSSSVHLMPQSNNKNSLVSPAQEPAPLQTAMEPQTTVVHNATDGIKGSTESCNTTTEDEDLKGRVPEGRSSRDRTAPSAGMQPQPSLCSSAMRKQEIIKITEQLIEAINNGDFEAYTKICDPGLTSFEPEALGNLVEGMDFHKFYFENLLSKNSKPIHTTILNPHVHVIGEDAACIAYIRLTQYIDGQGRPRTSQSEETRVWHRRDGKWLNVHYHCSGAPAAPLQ
Sequence of SRPK2 (human) (P78362 whole entry, looked up): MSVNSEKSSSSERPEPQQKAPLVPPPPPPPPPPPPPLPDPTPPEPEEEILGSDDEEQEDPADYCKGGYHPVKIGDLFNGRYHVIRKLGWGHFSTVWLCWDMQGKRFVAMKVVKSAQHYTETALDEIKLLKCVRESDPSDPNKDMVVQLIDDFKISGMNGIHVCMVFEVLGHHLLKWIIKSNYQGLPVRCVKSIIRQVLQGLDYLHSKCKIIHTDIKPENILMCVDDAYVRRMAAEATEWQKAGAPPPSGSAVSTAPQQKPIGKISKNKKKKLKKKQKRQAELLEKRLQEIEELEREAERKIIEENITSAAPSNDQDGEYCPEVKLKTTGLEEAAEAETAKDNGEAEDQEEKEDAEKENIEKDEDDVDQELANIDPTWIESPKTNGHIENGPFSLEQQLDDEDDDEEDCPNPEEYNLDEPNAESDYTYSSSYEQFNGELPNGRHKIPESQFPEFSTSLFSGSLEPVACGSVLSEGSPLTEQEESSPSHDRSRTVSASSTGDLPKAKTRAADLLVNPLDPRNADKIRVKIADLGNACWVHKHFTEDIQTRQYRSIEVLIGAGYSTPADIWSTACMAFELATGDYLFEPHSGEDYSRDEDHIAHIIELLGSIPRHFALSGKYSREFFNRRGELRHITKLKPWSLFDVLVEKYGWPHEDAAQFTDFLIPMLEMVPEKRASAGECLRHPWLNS
Sequence of SGK2 (human) (Q9HBY8 whole entry, looked up): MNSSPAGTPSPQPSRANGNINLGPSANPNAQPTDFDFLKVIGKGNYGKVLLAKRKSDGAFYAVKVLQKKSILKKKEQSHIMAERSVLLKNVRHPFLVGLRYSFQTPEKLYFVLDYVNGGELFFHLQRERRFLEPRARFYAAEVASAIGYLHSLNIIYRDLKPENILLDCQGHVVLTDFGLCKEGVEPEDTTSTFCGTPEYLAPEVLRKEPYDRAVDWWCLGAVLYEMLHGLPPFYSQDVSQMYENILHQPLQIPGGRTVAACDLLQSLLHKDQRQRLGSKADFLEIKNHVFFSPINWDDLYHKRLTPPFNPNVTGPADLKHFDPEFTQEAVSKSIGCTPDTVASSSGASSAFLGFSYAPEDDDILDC
Sequence of CLK3 (human) (P49761 whole entry, looked up): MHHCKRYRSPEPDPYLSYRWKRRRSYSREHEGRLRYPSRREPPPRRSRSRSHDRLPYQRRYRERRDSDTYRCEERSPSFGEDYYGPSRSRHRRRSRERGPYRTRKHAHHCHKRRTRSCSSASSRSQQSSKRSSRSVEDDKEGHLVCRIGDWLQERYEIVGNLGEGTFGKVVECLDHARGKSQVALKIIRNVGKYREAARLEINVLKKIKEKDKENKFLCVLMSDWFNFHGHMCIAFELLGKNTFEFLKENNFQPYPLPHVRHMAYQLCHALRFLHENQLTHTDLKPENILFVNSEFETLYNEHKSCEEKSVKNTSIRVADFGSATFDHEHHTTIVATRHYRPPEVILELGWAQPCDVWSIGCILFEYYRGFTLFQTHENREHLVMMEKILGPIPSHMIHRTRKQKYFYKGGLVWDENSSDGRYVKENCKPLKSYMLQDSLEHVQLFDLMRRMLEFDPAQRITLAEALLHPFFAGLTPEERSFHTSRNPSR
Sequence of CSNK1E (human) (P49674 whole entry, looked up): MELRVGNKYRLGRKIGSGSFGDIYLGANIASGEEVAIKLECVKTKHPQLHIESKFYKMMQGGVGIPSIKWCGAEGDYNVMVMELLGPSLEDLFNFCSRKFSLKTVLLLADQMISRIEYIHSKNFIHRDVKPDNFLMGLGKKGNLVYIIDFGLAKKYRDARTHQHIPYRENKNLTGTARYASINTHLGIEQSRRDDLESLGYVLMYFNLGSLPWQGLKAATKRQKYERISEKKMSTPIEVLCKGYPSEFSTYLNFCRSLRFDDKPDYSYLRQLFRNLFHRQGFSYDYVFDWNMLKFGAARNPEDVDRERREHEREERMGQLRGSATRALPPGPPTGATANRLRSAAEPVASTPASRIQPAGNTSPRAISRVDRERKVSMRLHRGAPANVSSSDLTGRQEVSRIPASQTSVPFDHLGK
Sequence of DYRK2 (human) (Q92630 whole entry, looked up): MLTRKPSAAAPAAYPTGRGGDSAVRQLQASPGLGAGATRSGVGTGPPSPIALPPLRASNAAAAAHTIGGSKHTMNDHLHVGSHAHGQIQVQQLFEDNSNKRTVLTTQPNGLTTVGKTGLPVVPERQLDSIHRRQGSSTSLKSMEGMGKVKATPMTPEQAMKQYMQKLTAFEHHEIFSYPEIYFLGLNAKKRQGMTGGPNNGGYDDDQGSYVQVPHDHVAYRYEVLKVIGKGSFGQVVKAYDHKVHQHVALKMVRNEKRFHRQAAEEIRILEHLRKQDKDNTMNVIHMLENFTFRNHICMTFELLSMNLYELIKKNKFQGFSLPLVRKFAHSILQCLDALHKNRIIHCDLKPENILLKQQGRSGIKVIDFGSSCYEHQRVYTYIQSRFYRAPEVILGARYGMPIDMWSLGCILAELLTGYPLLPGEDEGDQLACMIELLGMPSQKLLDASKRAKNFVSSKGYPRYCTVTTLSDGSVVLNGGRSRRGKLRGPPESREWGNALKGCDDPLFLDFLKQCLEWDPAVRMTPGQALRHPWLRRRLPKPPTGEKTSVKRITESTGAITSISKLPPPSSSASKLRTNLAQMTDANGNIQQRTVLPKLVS
Sequence of GRK4 (human) (P32298 whole entry, looked up): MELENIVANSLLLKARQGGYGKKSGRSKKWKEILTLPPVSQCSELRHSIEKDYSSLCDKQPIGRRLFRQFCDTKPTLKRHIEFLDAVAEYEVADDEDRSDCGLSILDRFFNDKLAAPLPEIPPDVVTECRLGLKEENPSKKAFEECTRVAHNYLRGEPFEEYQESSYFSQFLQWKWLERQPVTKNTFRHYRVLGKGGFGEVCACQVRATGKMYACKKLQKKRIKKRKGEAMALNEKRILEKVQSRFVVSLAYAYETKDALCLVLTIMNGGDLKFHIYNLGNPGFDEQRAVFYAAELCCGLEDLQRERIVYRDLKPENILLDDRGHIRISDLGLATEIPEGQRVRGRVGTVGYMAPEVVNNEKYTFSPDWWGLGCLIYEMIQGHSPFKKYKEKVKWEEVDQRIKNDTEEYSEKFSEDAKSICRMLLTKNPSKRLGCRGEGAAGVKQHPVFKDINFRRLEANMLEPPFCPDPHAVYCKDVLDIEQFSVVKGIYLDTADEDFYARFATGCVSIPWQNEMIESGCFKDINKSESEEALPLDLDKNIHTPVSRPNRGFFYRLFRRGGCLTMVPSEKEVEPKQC

COc1ccc(CNC(=O)Nc2ncc([N+](=O)[O-])s2)cc1
residual activity (ABL1 (human)): 96.8%
residual activity (ACVRL1 (human)): 106%
residual activity (BRSK2 (human)): 93.1%
residual activity (BTK (human)): 102%
residual activity (CAMK2G (human)): 102%
residual activity (CAMK4 (human)): 96.7%
residual activity (CDK7 CCNH MNAT1 (human)): 94.8%
residual activity (CDK9 CCNK (human)): 82.8%
residual activity (CLK1 (human)): 106%
residual activity (CLK3 (human)): 93%
residual activity (CSNK1A1 (human)): 92.4%
residual activity (CSNK1E (human)): 102%
residual activity (CSNK2A1 (human)): 94.2%
residual activity (DYRK2 (human)): 103%
residual activity (DYRK3 (human)): 105%
residual activity (DYRK4 (human)): 97.7%
residual activity (EPHA4 (human)): 101%
residual activity (ERBB2 (human)): 96.9%
residual activity (FGFR3 (human)): 108%
residual activity (GRK4 (human)): 92.1%
residual activity (GSK3B (human)): 40.2%
residual activity (HIPK2 (human)): 103%
residual activity (MAP3K10 (human)): 97.9%
residual activity (MAP3K11 (human)): 101%
residual activity (MAP3K3 (human)): 87.6%
residual activity (MAPK1 (human)): 104%
residual activity (MINK1 (human)): 90.5%
residual activity (NEK3 (human)): 78.6%
residual activity (NEK7 (human)): 99.4%
residual activity (PNCK (human)): 99.3%
residual activity (PRKACA (human)): 96.9%
residual activity (RIPK2 (human)): 82.8%
residual activity (ROCK1 (human)): 102%
residual activity (RPS6KA6 KD1 KD2 (human)): 99.8%
residual activity (RPS6KB2 (human)): 93.6%
residual activity (SGK2 (human)): 99.5%
residual activity (SRPK2 (human)): 99.6%
residual activity (SRPK3 (human)): 100%
residual activity (STK10 (human)): 94.3%
residual activity (TEK (human)): 94%
residual activity (TNK2 (human)): 96.8%
residual activity (ULK1 (human)): 97.7%
